This passage reports remaining binding results from patent US20250312462A1, “PAK1 DEGRADERS AND METHODS OF USE THEREOF” (INSTITUTE FOR CANCER RESEARCH D/B/A THE RESEARCH INSTITUTE …, priority 2022, published 2025).

Assay in all cases: KINOMEscan
Holding throughout (conditions): read-out: Percent Control

For assay [1], the target named is CAMK2A (Homo sapiens, UniProt Q9UQM7).
Experimental: (§1) The kinase engagement assay (KINOMEscan®) was performed by DiscoverX assessing binding abilities toward a set of kinases.
The target of assay [2] is PIK3CA (Homo sapiens, UniProt P42336).
Experimental: as §1
The target of assay [3] is TYRO3 (Homo sapiens, UniProt Q06418).
Experimental: as §1
Assay [4] addresses CSK (Homo sapiens, UniProt P41240).
Experimental: as §1
In assay [5] the target is LRRK2 (Homo sapiens, UniProt Q5S007).
Experimental: as §1
Assay [6] deals with PRKD1 (Homo sapiens, UniProt Q15139).
Experimental: as §1
Assay [7] concerns the target JNK1 (Homo sapiens, UniProt P45983).
Experimental: as §1
Assay [8] concerns the target TNK1 (Homo sapiens, UniProt Q13470).
Experimental: as §1
Assay [9] deals with CDC2L2 (Homo sapiens, UniProt Q9UQ88).
Experimental: as §1
In assay [10] the target is RIOK3 (Homo sapiens, UniProt O14730).
Experimental: as §1
Assay [11] deals with ACVR1B (Homo sapiens, UniProt P36896).
Experimental: as §1
Assay [12] concerns the target CDK4 (Homo sapiens, UniProt P11802).
Experimental: as §1
Assay [13] concerns the target IKK-beta (Homo sapiens, UniProt O14920).
Experimental: as §1
The target in assay [14] is TRPM6 (Homo sapiens, UniProt Q9BX84).
Experimental: as §1
For assay [15], the target named is FGFR3(G697C) (Homo sapiens, UniProt P22607, G697C).
Experimental: as §1
Assay [16] concerns the target RSK4(Kin.Dom.1-N-terminal) (Homo sapiens, UniProt Q9UK32).
Experimental: as §1
For assay [17], the target named is PCTK1 (Homo sapiens, UniProt Q00536).
Experimental: as §1
The target in assay [18] is RAF1 (Homo sapiens, UniProt P04049).
Experimental: as §1
The target of assay [19] is HUNK (Homo sapiens, UniProt P57058).
Experimental: as §1
Assay [20] has as its target IRAK1 (Homo sapiens, UniProt P51617).
Experimental: as §1
Assay [21] deals with MAP3K1 (Homo sapiens, UniProt Q13233).
Experimental: as §1

PCTK1, sequence (Q00536 whole entry): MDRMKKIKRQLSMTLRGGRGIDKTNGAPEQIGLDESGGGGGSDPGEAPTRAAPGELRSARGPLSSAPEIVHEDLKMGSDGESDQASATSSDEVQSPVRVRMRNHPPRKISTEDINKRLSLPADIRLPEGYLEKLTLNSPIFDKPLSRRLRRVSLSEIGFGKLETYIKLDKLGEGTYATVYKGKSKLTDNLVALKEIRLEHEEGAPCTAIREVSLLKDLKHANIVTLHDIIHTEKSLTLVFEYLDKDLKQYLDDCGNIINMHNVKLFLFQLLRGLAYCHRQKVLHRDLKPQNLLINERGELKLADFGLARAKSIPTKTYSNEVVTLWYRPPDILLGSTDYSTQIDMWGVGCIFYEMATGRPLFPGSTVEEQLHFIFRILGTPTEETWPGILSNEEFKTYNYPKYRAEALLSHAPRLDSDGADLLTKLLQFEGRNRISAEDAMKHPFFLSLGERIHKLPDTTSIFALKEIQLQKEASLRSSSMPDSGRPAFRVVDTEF
RIOK3, sequence (O14730 whole entry): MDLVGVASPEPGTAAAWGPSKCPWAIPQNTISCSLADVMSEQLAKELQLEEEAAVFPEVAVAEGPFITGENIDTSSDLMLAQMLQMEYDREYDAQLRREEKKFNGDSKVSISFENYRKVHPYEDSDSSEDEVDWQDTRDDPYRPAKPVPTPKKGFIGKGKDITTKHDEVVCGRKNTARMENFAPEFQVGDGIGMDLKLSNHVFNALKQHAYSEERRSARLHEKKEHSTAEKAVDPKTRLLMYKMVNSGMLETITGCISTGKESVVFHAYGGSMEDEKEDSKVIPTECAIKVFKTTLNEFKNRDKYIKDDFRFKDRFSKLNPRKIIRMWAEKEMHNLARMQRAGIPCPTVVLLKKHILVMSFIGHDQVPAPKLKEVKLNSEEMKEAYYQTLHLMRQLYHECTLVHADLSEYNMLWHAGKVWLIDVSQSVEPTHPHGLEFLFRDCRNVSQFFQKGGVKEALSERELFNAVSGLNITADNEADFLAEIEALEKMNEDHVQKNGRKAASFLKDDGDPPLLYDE
PIK3CA, sequence (P42336 whole entry): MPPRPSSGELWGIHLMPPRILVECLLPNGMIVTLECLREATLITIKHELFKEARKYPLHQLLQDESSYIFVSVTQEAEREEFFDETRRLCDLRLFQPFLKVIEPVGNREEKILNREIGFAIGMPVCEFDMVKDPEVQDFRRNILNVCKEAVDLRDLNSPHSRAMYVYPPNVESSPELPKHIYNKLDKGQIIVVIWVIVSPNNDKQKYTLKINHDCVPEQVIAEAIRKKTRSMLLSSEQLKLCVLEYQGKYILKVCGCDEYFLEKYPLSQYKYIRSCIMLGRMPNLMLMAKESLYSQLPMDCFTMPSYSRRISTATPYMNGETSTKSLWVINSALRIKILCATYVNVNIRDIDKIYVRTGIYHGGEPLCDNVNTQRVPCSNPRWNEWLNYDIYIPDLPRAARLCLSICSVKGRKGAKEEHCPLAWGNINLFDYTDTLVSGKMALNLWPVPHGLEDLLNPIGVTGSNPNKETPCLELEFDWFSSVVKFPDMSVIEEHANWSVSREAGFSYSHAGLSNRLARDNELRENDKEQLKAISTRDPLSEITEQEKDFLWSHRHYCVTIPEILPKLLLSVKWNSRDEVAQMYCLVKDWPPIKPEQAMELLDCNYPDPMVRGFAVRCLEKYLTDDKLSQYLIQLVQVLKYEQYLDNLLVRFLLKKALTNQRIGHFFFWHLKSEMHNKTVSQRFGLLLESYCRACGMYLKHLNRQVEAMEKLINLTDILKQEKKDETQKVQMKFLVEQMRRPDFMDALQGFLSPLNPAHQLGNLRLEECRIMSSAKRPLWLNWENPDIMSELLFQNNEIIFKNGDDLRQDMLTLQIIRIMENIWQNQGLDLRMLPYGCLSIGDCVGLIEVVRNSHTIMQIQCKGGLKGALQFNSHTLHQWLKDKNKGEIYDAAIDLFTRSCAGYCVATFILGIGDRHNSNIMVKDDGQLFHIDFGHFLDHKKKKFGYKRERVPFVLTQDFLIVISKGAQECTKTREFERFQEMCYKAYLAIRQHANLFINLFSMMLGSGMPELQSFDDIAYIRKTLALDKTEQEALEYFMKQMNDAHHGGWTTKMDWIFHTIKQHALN
CAMK2A, sequence (Q9UQM7 whole entry): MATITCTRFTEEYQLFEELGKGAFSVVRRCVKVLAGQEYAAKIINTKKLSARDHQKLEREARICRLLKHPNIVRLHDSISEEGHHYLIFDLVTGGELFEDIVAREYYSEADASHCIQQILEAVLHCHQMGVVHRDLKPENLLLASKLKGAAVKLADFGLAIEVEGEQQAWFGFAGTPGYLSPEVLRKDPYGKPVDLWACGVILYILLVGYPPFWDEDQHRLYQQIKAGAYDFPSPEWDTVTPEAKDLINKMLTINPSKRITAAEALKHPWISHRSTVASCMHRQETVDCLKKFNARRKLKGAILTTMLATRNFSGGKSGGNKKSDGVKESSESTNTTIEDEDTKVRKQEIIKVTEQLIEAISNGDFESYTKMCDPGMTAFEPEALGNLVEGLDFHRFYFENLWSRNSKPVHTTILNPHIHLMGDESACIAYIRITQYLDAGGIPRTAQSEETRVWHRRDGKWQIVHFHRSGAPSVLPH
CSK, sequence (P41240 whole entry): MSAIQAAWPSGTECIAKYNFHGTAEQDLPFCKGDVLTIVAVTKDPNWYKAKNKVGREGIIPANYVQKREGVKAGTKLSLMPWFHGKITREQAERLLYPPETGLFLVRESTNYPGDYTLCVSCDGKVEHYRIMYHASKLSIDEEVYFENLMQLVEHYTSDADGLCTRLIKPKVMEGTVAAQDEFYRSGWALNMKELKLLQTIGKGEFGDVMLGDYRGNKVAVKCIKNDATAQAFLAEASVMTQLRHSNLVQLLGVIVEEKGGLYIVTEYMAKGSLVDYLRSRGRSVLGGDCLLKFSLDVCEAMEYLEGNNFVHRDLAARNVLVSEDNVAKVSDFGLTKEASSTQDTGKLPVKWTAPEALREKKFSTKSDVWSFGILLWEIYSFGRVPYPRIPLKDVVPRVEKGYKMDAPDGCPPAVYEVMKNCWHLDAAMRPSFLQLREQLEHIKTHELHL
TRPM6, sequence (Q9BX84 whole entry): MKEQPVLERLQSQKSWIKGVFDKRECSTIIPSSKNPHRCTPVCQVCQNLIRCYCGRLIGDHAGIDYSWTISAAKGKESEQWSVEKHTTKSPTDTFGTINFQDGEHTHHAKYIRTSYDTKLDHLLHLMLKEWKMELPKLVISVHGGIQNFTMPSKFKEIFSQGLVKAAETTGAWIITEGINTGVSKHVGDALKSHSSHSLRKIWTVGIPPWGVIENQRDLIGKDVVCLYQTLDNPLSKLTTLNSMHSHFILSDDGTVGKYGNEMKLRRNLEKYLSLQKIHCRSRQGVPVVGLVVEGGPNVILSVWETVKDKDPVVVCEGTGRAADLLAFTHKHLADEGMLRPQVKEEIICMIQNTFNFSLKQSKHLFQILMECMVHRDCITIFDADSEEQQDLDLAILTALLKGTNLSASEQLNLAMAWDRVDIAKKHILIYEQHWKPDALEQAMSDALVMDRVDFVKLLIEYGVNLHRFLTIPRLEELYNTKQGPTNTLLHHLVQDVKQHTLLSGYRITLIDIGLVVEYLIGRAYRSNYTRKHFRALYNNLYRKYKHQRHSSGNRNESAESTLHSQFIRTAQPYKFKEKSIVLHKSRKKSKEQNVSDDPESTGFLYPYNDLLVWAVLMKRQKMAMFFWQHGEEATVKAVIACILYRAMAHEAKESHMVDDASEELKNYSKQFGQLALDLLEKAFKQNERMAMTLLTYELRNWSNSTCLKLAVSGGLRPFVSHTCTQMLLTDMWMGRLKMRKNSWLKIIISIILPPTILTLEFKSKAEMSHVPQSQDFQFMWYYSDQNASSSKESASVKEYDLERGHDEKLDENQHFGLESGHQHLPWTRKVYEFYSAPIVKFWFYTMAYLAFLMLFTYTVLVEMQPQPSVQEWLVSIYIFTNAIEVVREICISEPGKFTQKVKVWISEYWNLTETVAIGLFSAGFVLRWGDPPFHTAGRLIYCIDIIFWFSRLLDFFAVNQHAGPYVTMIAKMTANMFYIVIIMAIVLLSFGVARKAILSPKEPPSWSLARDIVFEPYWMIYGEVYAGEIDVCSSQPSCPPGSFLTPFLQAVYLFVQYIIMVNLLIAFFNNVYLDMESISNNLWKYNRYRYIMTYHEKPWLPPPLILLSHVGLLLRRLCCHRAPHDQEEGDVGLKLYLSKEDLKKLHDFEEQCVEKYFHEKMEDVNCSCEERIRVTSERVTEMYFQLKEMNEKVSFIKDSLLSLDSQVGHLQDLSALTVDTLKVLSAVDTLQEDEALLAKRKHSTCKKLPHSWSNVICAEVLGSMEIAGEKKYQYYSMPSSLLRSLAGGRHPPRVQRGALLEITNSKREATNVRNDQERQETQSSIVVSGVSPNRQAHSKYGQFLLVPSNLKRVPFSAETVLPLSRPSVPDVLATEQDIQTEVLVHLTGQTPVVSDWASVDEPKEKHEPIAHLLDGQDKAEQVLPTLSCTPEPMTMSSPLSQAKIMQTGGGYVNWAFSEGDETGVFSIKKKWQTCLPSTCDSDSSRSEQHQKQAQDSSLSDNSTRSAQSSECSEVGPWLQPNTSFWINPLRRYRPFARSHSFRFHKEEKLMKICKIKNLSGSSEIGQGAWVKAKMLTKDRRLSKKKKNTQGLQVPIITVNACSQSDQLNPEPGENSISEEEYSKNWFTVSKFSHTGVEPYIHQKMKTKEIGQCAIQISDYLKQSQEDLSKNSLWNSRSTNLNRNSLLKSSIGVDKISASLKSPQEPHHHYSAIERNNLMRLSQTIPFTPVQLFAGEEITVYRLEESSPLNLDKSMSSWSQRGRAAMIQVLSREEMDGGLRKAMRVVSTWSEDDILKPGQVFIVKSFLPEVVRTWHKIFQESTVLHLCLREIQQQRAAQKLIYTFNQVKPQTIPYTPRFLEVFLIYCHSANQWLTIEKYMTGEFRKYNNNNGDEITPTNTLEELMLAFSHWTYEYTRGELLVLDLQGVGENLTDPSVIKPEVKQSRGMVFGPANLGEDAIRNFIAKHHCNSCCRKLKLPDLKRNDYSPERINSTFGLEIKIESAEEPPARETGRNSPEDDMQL

Consider `O=C1CCC(N2C(=O)c3cccc(NCCCCCCCCNC(=O)N4CC[C@H](NC5=Nc6cc(F)ccc6N(CC(F)F)c6ccc(Cl)cc65)C4)c3C2=O)C(=O)N1` (stereo partly drawn) [BJG-05-039, (3S)-3-((2-Chloro-5-(2,2-difluoroethyl)-8-fluoro-5H-dibenzo[b,e][1,4]diazepin-11-yl)amino)-N-(8-((2-(2,6-dioxopiperidin-3-yl)-1,3-dioxoisoindolin-4-yl)amino)octyl)pyrrolidine-1-carboxamide], for which the remaining binding at 10 µM in assay [1] was 39%; in [2], 60%; in assay [3], 72%; in [4] it was 74%; in [5], 80%; in [6] it was 81%. Moreover, the remaining binding at 10 µM stood at 83% in [7]; 83% in [8]; 84% in assay [9]; 84% in [10]; 85% in assay [11]; 86% in assay [12]. For the same compound, the remaining binding at 10 µM came to 94% in assay [13]; 94% in assay [14]; 95% in assay [15]; 95% in assay [16]; 97% in assay [17]; 97% in assay [18]. Also, the remaining binding at 10 µM in [19], in assay [20] and in [21] was 100% throughout.
